Results on 40 compounds are retold here after publication PMC8556396, “Statin-mediated disruption of Rho GTPase prenylation and activity inhibits respiratory syncytial virus infection” (Communications Biology, 2021).

Counter-ions that a name gives are not always drawn.

The test system of the first experiment is RSV-GFP. In words: microbe, parasite or virus in culture. It counts as cell-based, Respiratory syncytial virus. Particulars: 10.0 µM, HEp-2, RSV-GFP MOI 0.5, single replicate. The method, then:
The following morning, cells were washed twice with serum-free EMEM and treated with RSV-GFP (MOI 0.5) in a minimal volume of serum-free media for 90 min under frequent agitation. Unbound virus was then removed and replaced with fresh serum-containing EMEM. All drug additions were performed 2 h post-viral exposure, unless otherwise stated.
Automated quantification of infection rates from fluorescent images were performed in CellProfiler (v2.2.0)[86]. Major steps in the image analysis pipeline included: (1) background subtraction and smoothing, (2) segmentation of nuclei, (3) segmentation of GFP-fluorescent area, (4) object masking, and (5) measurement of nuclear number, size, and intensity. Infection rate was quantified from the ratio of nuclei within GFP-fluorescent area to the total number of nuclei (Fig. 1b). This method of analysis accounts for in vitro syncytium formation induced by RSV, whereby a single infected cell may arise from the fusion of multiple cells. Mean nuclear fluorescent intensity and size was quantified as a measure of cell viability.
The MicroSource […] Collection (Discovery Systems Inc.) consisting of 2400 compounds was screened using the previously outlined RSV-GFP infection assay protocol. Robot-assisted addition of drugs was performed within 1 h of RSV-GFP infection and infection rates were assayed 48 h p.i. Drugs were provided as 10 mM stocks in DMSO and serial diluted to a final concentration of 10 µM, resulting in a final DMSO concentration of 0.1% v/v. […] Hits were selected based on the criteria that: (a) the tested drug caused a >50% reduction in infection rate and (b) was not overtly cytotoxic (<10% change in mean nuclear intensity relative to DMSO control). Z-factors were calculated on a per-plate basis to monitor assay quality.
For `CC[C@@H](C(=O)[C@@H](C)[C@@H](O)[C@H](C)[C@@H]1O[C@@H]([C@@H](CC)C(=O)O)CC[C@@H]1C)[C@H]1O[C@]2(C=C[C@@H](O)[C@]3(CC[C@@](C)([C@H]4CC[C@](O)(CC)[C@H](C)O4)O3)O2)[C@H](C)C[C@@H]1C` [Salinomycin, sodium], the “RSV-GFP inhibition (%)” value was 96.45%.

Consider `CCc1c2c(nc3ccc(OC(=O)N4CCC(N5CCCCC5)CC4)cc13)-c1cc3c(c(=O)n1C2)COC(=O)[C@]3(O)CC.Cl` [Irinotecan hydrochloride], for which the “RSV-GFP inhibition (%)” value is 55.56%.

On to `O=C1[O][Pt]2([NH][C@@H]3CCCC[C@H]3[NH]2)[O]C1=O` [Oxaliplatin], for which the “RSV-GFP inhibition (%)” value is given as 88.7%.

As to Benzalkonium chloride, the “RSV-GFP inhibition (%)” value was 77.34%.

`CC(=O)OC1CCC23C(=O)OC45CCC(C6=CC(=O)OC6)C4(C)CCC2C5CCC3(O)C1` (stereo not shown) [Strophanthidinic acid lactone acetate]: the “RSV-GFP inhibition (%)” value is 82.33%.

In the case of Antimycin A1, the “RSV-GFP inhibition (%)” value is 79.49%.

`COc1cc2c(cc1OC)[C@@H]1C(=O)c3c(O)cc4c(c3O[C@@H]1CO2)C=CC(C)(C)O4` [Alpha-toxicarol]: the “RSV-GFP inhibition (%)” value stood at 63.58%.

With `CC(=O)Oc1cc2c(c(C)c1OC(C)=O)CC=C1[C@@]2(C)CC[C@@]2(C)C3C[C@](C)(C(=O)O)CC[C@]3(C)CC[C@]12C` (stereo partly shown) [Dihydrocelastryl diacetate], the “RSV-GFP inhibition (%)” value was 89.96%.

Staying with this experiment, now noted: human respiratory syncytial virus, HEp-2, read-out: RSV-GFP inhibition (%).
Turning to `CN(C)c1ccc(C(=C2C=CC(=[N+](C)C)C=C2)c2ccc(N(C)C)cc2)cc1` [Gentian violet], the inhibition (as a rule, the drop in the measured response relative to a control, in per cent) at 10 µM was 86.3%.

For `O=c1cc(-c2ccc(O)cc2)oc2ccc(O)cc12` [6,4’-Dihydroxyflavone], the inhibition at 10 µM worked out at 75.3%.

In the case of `CC(=O)[C@H]1CC[C@H]2[C@@H]3CCC4=CC(=O)CC[C@]4(C)[C@H]3CC[C@]12C` [Progesterone], the inhibition at 10 µM came to 50.5%.

As to `CO[C@H]1[C@H](O)[C@H](O[C@H]2CC[C@@]3(C=O)[C@H](CC[C@@H]4[C@@H]3CC[C@]3(C)[C@@H](C5=CC(=O)OC5)CC[C@]43O)C2)O[C@@H](C)[C@@H]1O` [Peruvoside], the inhibition at 10 µM was 98.2%.

`COc1ccc(-c2cc(=O)c3ccccc3o2)cc1` [4’-Methoxyflavone]: the inhibition at 10 µM was found to be 59.9%.

As to `Cc1nc2ccccc2n1Cc1ccc(Cl)cc1` [Chlormidazole], the inhibition at 10 µM amounted to 68.5%.

Turning to `CCCCC(CC)CNC(=N)NC(=N)NCCCCCCNC(=N)NC(=N)NCC(CC)CCCC` (stereo not shown) [Alexidine hydrochloride], the inhibition at 10 µM stood at 66.8%.

Take `CCCCCCCCCc1ccc(OCCOCCOCCOCCOCCOCCOCCOCCOCCO)cc1` [Nonoxynol-9]: the inhibition at 10 µM was 69.2%.

As for `Cc1cc(N)c2ccccc2[n+]1CCCCCCCCCC[n+]1c(C)cc(N)c2ccccc21` [Dequalinium chloride], the inhibition at 10 µM stood at 63.8%.

For the compound `Oc1c(Cl)cc(Cl)c(Cl)c1Cc1c(O)c(Cl)cc(Cl)c1Cl` [Hexachlorophene], the inhibition at 10 µM was determined as 83.2%.

On to `CC[C@H]1CN2CCc3cc(OC)c(OC)cc3[C@@H]2C[C@@H]1C[C@H]1NCCc2cc(OC)c(OC)cc21` [Emetine dihydrochloride], for which the inhibition at 10 µM was 100%.

In the case of `C#C[C@]1(OC(C)=O)CC[C@H]2[C@@H]3CCC4=CC(=NO)CC[C@@H]4[C@H]3CC[C@@]21CC` (mixture of isomers) [Norgestimate], the inhibition at 10 µM is 55%.

Regarding `CC[C@@]1(O)C(=O)OCc2c1cc1n(c2=O)Cc2cc3ccccc3nc2-1` [Camptothecin], the inhibition at 10 µM came to 55.7%.

`CC(=O)O[C@H]1C[C@H](O[C@H]2[C@@H](O)C[C@H](O[C@H]3[C@@H](O)C[C@H](O[C@H]4CC[C@@]5(C)[C@H](CC[C@@H]6[C@@H]5C[C@@H](O)[C@]5(C)[C@@H](C7=CC(=O)OC7)CC[C@]65O)C4)O[C@@H]3C)O[C@@H]2C)O[C@H](C)[C@H]1O[C@@H]1O[C@H](CO)[C@@H](O)[C@H](O)[C@H]1O` [Lanatoside C]: the inhibition at 10 µM was 100%.

Regarding `C=C[C@@]1(C)CC(=O)[C@]2(O)[C@@]3(C)[C@@H](O)CCC(C)(C)[C@@H]3[C@H](O)[C@H](OC(C)=O)[C@@]2(C)O1` [Colforsin], the inhibition at 10 µM stood at 72.5%.

With `C#CC1(O)CC[C@H]2[C@@H]3CCC4=CC(=O)CC[C@@H]4[C@H]3CC[C@@]21CC` (mixture of isomers) [Norgestrel], the inhibition at 10 µM is 64.1%.

For the compound `N=C(N)c1ccc(OCCCCCOc2ccc(C(=N)N)cc2)cc1` [Pentamidine isethionate], the inhibition at 10 µM was 60.2%.

Consider `CC1=C2C[C@H]3[C@@H](CC=C4C[C@@H](O)CC[C@@]43C)[C@@H]2CC[C@]12O[C@@H]1C[C@H](C)CN[C@H]1[C@H]2C` [Cyclopamine], for which the inhibition at 10 µM was found to be 86%.

As for `C[C@@H]1O[C@@H](O[C@@H]2C=C3CC[C@@H]4[C@H](CC[C@]5(C)[C@@H](c6ccc(=O)oc6)CC[C@]45O)[C@@]3(C)CC2)[C@H](O)[C@H](O)[C@H]1O` [Proscillaridin], the inhibition at 10 µM came to 81.6%.

Take `Nc1c2ccccc2nc2ccccc12` [Aminacrine]: the inhibition at 10 µM was found to be 58.3%.

For the compound `CC(=O)O[C@H]1CC[C@@]2(C)[C@H](CC[C@@H]3[C@@H]2CC[C@]2(C)[C@@H](C4=CC(=O)OC4)[C@@H](OC(C)=O)C[C@]32O)C1` [Gitoxigenin diacetate], the inhibition at 10 µM was 91.8%.

On to `CN(C)c1ccc2nc3ccc(=[N+](C)C)cc-3sc2c1` [Methylene blue], for which the inhibition at 10 µM amounted to 67.8%.

With `C#C[C@]1(OC(C)=O)CC[C@H]2[C@@H]3CCC4=CC(=O)CC[C@@H]4[C@H]3CC[C@@]21C` [Norethindrone acetate], the inhibition at 10 µM came to 54.2%.

In the case of `COc1c(C)c2c(c(O)c1C/C=C(\C)CCC(=O)OCCN1CCOCC1)C(=O)OC2` [Mycophenolate mofetil], the inhibition at 10 µM amounted to 98.4%.

Take `COC(=O)[C@]1(C)CC[C@]2(C)CC[C@]3(C)C4=CC=C5C(=CC(=O)C(O)=C5C)[C@]4(C)CC[C@@]3(C)[C@@H]2C1` [Pristimerin]: the inhibition at 10 µM was found to be 74.1%.

Turning to `CCC(=O)O[C@H]1CC[C@H]2[C@@H]3CCC4=CC(=O)CC[C@]4(C)[C@H]3CC[C@]12C` [Testosterone propionate], the inhibition at 10 µM was 84.7%.

For `C[C@]12CC[C@H](O)C[C@H]1CC[C@@H]1[C@@H]2C[C@@H](O)[C@]2(C)[C@@H](C3=CC(=O)OC3)CC[C@]12O` [Digoxigenin], the inhibition at 10 µM amounted to 85.1%.

For the compound `C[C@H]1O[C@@H](O[C@H]2[C@@H](O)C[C@H](O[C@H]3[C@@H](O)C[C@H](O[C@H]4CC[C@@]5(C)[C@H](CC[C@@H]6[C@@H]5CC[C@]5(C)[C@@H](C7=CC(=O)OC7)[C@@H](O)C[C@]65O)C4)O[C@@H]3C)O[C@@H]2C)C[C@H](O)[C@@H]1O` [Gitoxin], the inhibition at 10 µM turned out to be 85.7%.

In the case of `C[C@@H]1C[C@@H]([C@H](O)CC2CC(=O)NC(=O)C2)C(=O)[C@@H](C)C1` [Cycloheximide], the inhibition at 10 µM stood at 75%.

For the compound `C#C[C@]1(O)CC[C@H]2[C@@H]3CCC4=C(CCC(=O)C4)[C@H]3CC[C@@]21C` [Norethynodrel], the inhibition at 10 µM amounted to 75.4%.

With `CCCCCCCCCCCCCCCC[N+](C)(C)C` [Cetrimonium bromide], the inhibition at 10 µM worked out at 71.2%.

Take `Cc1c(O)c(O)cc2c1CC=C1[C@@]2(C)CC[C@@]2(C)[C@@H]3C[C@](C)(C(=O)O)CC[C@]3(C)CC[C@]12C` [Dihydrocelastrol]: the inhibition at 10 µM was 82.6%.
